From publication PMC4894406, “Results of an abbreviated phase-II study with the Akt Inhibitor MK-2206 in Patients with Advanced Biliary Cancer” (Scientific Reports, 2015)
“And” between values parts separate entries of the source, which are not always exact repeats. Equal entries are not always repeated. “Also recorded” adds a separate entry of the source.

Columns and labels:
[1] = test system: CYP2D6; set-up: method as in PMID 24387695; conditions: read-out: IC50 CYP2D6 inhibition; cited from earlier work
[2] = test system: P-glycoprotein; conditions: cited from earlier work
[3] = test system: human Akt (Akt-2); conditions: cited from earlier work
[4] = Phase II study: toxicities (NCI-CTCAE v4.0); type: in vivo, human; conditions: 200 mg weekly, n = 8
Experimental: The starting dose and schedule for MK-2206 was 200 mg given weekly in 28-day cycles without interruption. Treatment was administered on an outpatient basis. Two levels of dose reductions were planned (135 mg weekly and 90 mg weekly) with patients taken off the study for additional dose reductions.
Radiologic assessment was done by computed tomography every 8 weeks and responses were measured according to RECIST 1.1[17]. Toxicities were defined by the NCI-Common Terminology Criteria of Adverse Events version 4.0.

[5] = set-up: method as in Fouladi et al. [23]; conditions: children with refractory malignancies, 9 subjects, 120 mg/m^2 weekly oral, first dose; ref Fouladi et al. [23]; cited from earlier work
[6] = test system: CYP3A4; conditions: cited from earlier work

NC1(c2ccc(-c3nc4ccn5c(=O)[nH]nc5c4cc3-c3ccccc3)cc2)CCC1 [MK-2206]
IC50 [1]: > 35000 nM | P-glycoprotein substrate [2]: substrate of P-glycoprotein | IC50 [3]: 12 nM | Anemia, All toxicities (%) [4]: 12.5% | Anemia, Grade 1 (%) [4]: 12.5% | Constipation, All toxicities (%) [4]: 12.5% | Constipation, Grade 1 (%) [4]: 12.5% | Diarrhea, All toxicities (%) [4]: 50% | Diarrhea, Grade 1 (%) [4]: 25% | Diarrhea, Grade 2 (%) [4]: 12.5% | Diarrhea, Grade 3 (%) [4]: 12.5% | Dry Mouth, All toxicities (%) [4]: 25% | Dry Mouth, Grade 1 (%) [4]: 25% | Dry Skin, All toxicities (%) [4]: 38% | Dry Skin, Grade 1 (%) [4]: 25% | Dry Skin, Grade 2 (%) [4]: 12.5% | Fatigue, All toxicities (%) [4]: 50% | Fatigue, Grade 1 (%) [4]: 25% | Fatigue, Grade 2 (%) [4]: 25% | Fever, Grade 1 (%) [4]: 25% | Hand Foot Syndrome, All toxicities (%) [4]: 38% | Hand Foot Syndrome, Grade 1 (%) [4]: 25% | Hand Foot Syndrome, Grade 2 (%) [4]: 12.5% | Hyponatremia, All toxicities (%) [4]: 12.5% | Hypophosphatemia, All toxicities (%) [4]: 25% | Hypophosphatemia, Grade 2 (%) [4]: 25% | Leukopenia, All toxicities (%) [4]: 12.5% | Leukopenia, Grade 1 (%) [4]: 12.5% | Lymphopenia, All toxicities (%) [4]: 75% | Lymphopenia, Grade 1 (%) [4]: 25% | Lymphopenia, Grade 2 (%) [4]: 12.5% | Lymphopenia, Grade 3 (%) [4]: 37.5% | Macular Rash, All toxicities (%) [4]: 63% | Macular Rash, Grade 1 (%) [4]: 12.5% | Macular Rash, Grade 2 (%) [4]: 12.5% | Macular Rash, Grade 3 (%) [4]: 38% | Mucositis, All toxicities (%) [4]: 38% | Mucositis, Grade 1 (%) [4]: 38% | Nausea, All toxicities (%) [4]: 38% | Nausea, Grade 1 (%) [4]: 38% | Thrombocytopenia, All toxicities (%) [4]: 25% | Thrombocytopenia, Grade 1 (%) [4]: 12.5% | Thrombocytopenia, Grade 3 (%) [4]: 12.5% | Vomiting, All toxicities (%) [4]: 50% | Vomiting, Grade 1 (%) [4]: 50% | overall toxicity / tolerability [4]: mild and tolerable; also recorded: mostly grade 1 or 2 and were reversible | Hyponatremia, Grade 4 (%) ([4]; felt to be unrelated to MK-2206): 12.5% | CL/F/m^2 (BSA-adjusted CL/F) [5]: 18.0 +/− 18.8 L/hr/m^2 and 18.0±18.8 L/hr/m^2 | Cmax [5]: 171 ng/mL | Half life [5]: 44.2 ± 23.3 h | Tmax [5]: 5.1 ± 1.6 h | Vz/F/m^2 [5]: 1100±1020 L/m^2 | metabolism in human microsomes [6]: converted to oxidative metabolites in human microsomes via CYP3A4
